In PubChem BioAssay AID2765 (Broad Institute, 2010):
pEC50: −log10 of the molar value. Calls of active or inactive are those of the source.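 How the source made its calls: active means half-maximal concentration for the rise in caspase light signal at or below ten times the top tested dose; inconclusive means flat fit between 30% and 70% activity, or unreliable curve fit; inactive means the rest.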

Tested on: MEF A1-2A-BIM cells, caspase 3/7 luminescence, 3 h
Assay: caspase activation in A1-2A-BIM MEF cells, dose response, A1 inhibitor project, cell-based, luminescence, retest (AID 2765)

O=C(CCC(=O)c1cccs1)OCC(=O)c1ccccc1
EC50: > 35 µM (inactive)

COc1ccc(C[C@H]2NC[C@H](O)[C@H]2OC(C)=O)cc1
EC50: > 35 µM (inactive)

Cc1cccc[n+]1CC(=O)c1ccccc1
EC50: > 35 µM (inactive)

Cc1cc(NC(=O)CN(C)C)c([N+](=O)[O-])cc1C
EC50: > 35 µM (inactive)

CCS(=O)(=O)c1nc2ccccc2n1Cc1ccccc1Cl
EC50: > 35 µM (inactive)

O=C(NCCc1ccccc1)C1CCCN1C(=O)Nc1ccc(F)cc1 (configuration not stated)
EC50: > 35 µM (inactive)

CCN(CC)c1ccc2c(c1)oc(=O)c1c(Cl)cc(=O)oc12
EC50: > 35 µM (inactive)

CSc1cccc(NS(=O)(=O)c2cn(C)cn2)c1
EC50: > 35 µM (inactive)

Cc1ccc(C(=O)N/C(=C\c2sccc2C)C(=O)NCCCN2CCOCC2)cc1
EC50: > 35 µM (inactive)

O=C(NCc1ccccc1)c1ccc(C(=O)N(C2CCCCC2)C2CCCCC2)cc1
EC50: > 35 µM (inactive)

COc1ccc2[nH]c(C(=O)Nc3ccc(F)cc3Br)cc2c1
EC50: > 35 µM (inactive)

COc1ccc2[nH]c(=O)c(CN(CC3CCCO3)C(=O)Nc3ccccc3)cc2c1 (configuration not stated)
EC50: > 35 µM (inactive)

O=S(=O)(Nc1nc2ccccc2nc1Cl)c1ccc(Br)cc1
EC50: > 35 µM (inactive)

O=C1/C(=C/c2ccc(N3CCOCC3)o2)SC(=Nc2ccccc2)N1CCc1c[nH]c2ccccc12
pEC50: 5.04

COc1ccc(NC(=O)CN2CCC(NC(=O)c3ccc(OC)cc3)CC2)cc1
EC50: > 35 µM (inactive)

CCOc1ccc(OCc2ccc(C(=O)NN=Cc3ccc[nH]3)cc2)cc1
EC50: > 35 µM (inactive)

COc1cc(NC(=O)c2nn(C)c3c2CS(=O)(=O)c2ccccc2-3)cc(OC)c1
EC50: > 35 µM (inactive)

CSc1ccc(CNC(=O)Cn2nc(C)c3c(C)n(-c4ccc(C)cc4)nc3c2=O)cc1
EC50: > 35 µM (inactive)

Cc1cccc(NC(=S)NC2CCCC2)c1C
EC50: > 35 µM (inactive)

Cc1ccc2c(c1)C(=O)C(=O)N2Cc1ccc(Cl)cc1
EC50: > 35 µM (inactive)

O=C(O)CCN1C(=O)/C(=C\c2ccncc2)SC1=S
EC50: > 35 µM (inactive)

c1ccc2c(CNc3ccc(CNc4ncn[nH]4)cc3)cccc2c1
EC50: > 35 µM (inactive)

O=C(Nc1ccc(Cl)cc1Cl)c1cccc(N2C(=O)C=CC2=O)c1
EC50: > 35 µM (inactive)

Cc1cccc(NC(=S)N(Cc2cccc(Br)c2)CC2CCC(C(=O)O)CC2)c1 (configuration not stated)
EC50: > 35 µM (inactive)

Cc1ccc(N=C2C(=O)Nc3ccc(C)c(Br)c32)cc1
EC50: > 35 µM (inactive)

NC(=O)CCSC(=S)N1CCOCC1
EC50: > 35 µM (inactive)

CCN(CC)c1ccc(C=NCCc2ccc(S(N)(=O)=O)cc2)cc1
EC50: > 35 µM (inactive)
